From ChEMBL document CHEMBL2311320, “A-ring modification of SCH 900229 and related chromene sulfone γ-secretase inhibitors” (Bioorg Med Chem Lett, 2013)
pIC50: −log10 of the molar value.

Legend:
Assay type in all cases: cell-based, Homo sapiens
Gamma-secretase [1] = test: Inhibition of gamma-secretase (unknown origin) expressed in HEK293 cells co-expressing […] mutant assessed as reduction of amyloid beta-42 production
Gamma-secretase [2] = test: Inhibition of gamma-secretase (unknown origin) expressed in HEK293 cells co-expressing […] mutant assessed as reduction of amyloid beta-40 production
Gamma-secretase [3] = test: Inhibition of gamma-secretase (unknown origin) expressed in HEK293 cell membrane co-expressing […] mutant assessed as reduction of amyloid beta-40 production

Work on CS(=O)(=O)CC[C@@H]1CCC[C@@]2(S(=O)(=O)c3ccc(C(F)(F)F)cc3)C3=C(OC[C@@H]12)C(F)(F)C=CC3=O yielded a pIC50 (Gamma-secretase [1]) of 7.31, a pIC50 (Gamma-secretase [2]) of 6.89 and a pIC50 (Gamma-secretase [3]) of 8.72.

For CC[C@@H]1C[C@@H]2[C@@H](CC[C@@]3(S(=O)(=O)c4ccc(C(F)(F)F)cc4)c4c(F)ccc(F)c4OC[C@@H]23)NS1(=O)=O, the pIC50 (Gamma-secretase [1]) was 8.70, the pIC50 (Gamma-secretase [2]) was 8.30 and the pIC50 (Gamma-secretase [3]) was 8.72.

In the case of O=S(=O)(NC[C@@H]1CCC[C@@]2(S(=O)(=O)c3ccc(C(F)(F)F)cc3)c3c(F)ccc(F)c3OC[C@@H]12)C(F)(F)F, the pIC50 (Gamma-secretase [1]) was 7.49, the pIC50 (Gamma-secretase [2]) was 7.14 and the pIC50 (Gamma-secretase [3]) was 7.27.

Molecule O=C1C=CC(F)(F)C2=C1[C@]1(S(=O)(=O)c3ccc(C(F)(F)F)cc3)CC[C@@H](NS(=O)(=O)C3CC3)C[C@@H]1CO2 has a pIC50 (Gamma-secretase [1]) of 6.96, a pIC50 (Gamma-secretase [2]) of 6.55 and a pIC50 (Gamma-secretase [3]) of 8.17.

CS(=O)(=O)CC[C@@H]1OCC[C@@]2(S(=O)(=O)c3ccc(C(F)(F)F)cc3)C3=C(OC[C@@H]12)C(F)(F)C=CC3=O was tested, and the pIC50 (Gamma-secretase [1]) was 7.57, the pIC50 (Gamma-secretase [2]) was 7.25 and the pIC50 (Gamma-secretase [3]) was 8.74.

Work on CC[C@@H]1C[C@@H]2[C@@H](CC[C@@]3(S(=O)(=O)c4ccc(C#N)cc4)C4=C(OC[C@@H]23)C(F)(F)C=CC4=O)NS1(=O)=O yielded a pIC50 (Gamma-secretase [1]) of 7.51, a pIC50 (Gamma-secretase [2]) of 6.96 and a pIC50 (Gamma-secretase [3]) of 8.46.

With CS(=O)(=O)CC[C@@H]1OCC[C@@]2(S(=O)(=O)c3ccc(Cl)cc3)C3=C(OC[C@@H]12)C(F)(F)C=CC3=O the pIC50 (Gamma-secretase [1]) was 7.96, the pIC50 (Gamma-secretase [2]) was 7.59 and the pIC50 (Gamma-secretase [3]) was 8.92.

For O=C1C=CC(F)(F)C2=C1[C@]1(S(=O)(=O)c3ccc(C(F)(F)F)cc3)CCC[C@@H](CNS(=O)(=O)C(F)(F)F)[C@@H]1CO2, the pIC50 (Gamma-secretase [1]) was 6.70, the pIC50 (Gamma-secretase [2]) was 6.48 and the pIC50 (Gamma-secretase [3]) was 7.11.

CC[C@@H]1C[C@@H]2[C@@H](CC[C@@]3(S(=O)(=O)c4ccc(C(F)(F)F)cc4)C4=C(OC[C@@H]23)C(F)(F)C=CC4=O)NS1(=O)=O gave a pIC50 (Gamma-secretase [1]) of 7.60, a pIC50 (Gamma-secretase [2]) of 7.34 and a pIC50 (Gamma-secretase [3]) of 8.41.

In the case of CS(=O)(=O)CC[C@@H]1OCC[C@@]2(S(=O)(=O)c3ccc(C#N)cc3)C3=C(OC[C@@H]12)C(F)(F)C=CC3=O, the pIC50 (Gamma-secretase [1]) was 6.39, the pIC50 (Gamma-secretase [2]) was 5.80 and the pIC50 (Gamma-secretase [3]) was 7.68.

For CS(=O)(=O)CC[C@@H]1OCC[C@@]2(S(=O)(=O)c3ccc(Cl)cc3)c3c(F)ccc(F)c3OC[C@@H]12, the pIC50 (Gamma-secretase [1]) was 9.00, the pIC50 (Gamma-secretase [2]) was 8.40 and the pIC50 (Gamma-secretase [3]) was 8.89.

CS(=O)(=O)CC[C@@H]1CCC[C@@]2(S(=O)(=O)c3ccc(C(F)(F)F)cc3)c3c(F)ccc(F)c3OC[C@@H]12 showed a pIC50 (Gamma-secretase [1]) of 7.68, a pIC50 (Gamma-secretase [2]) of 7.20 and a pIC50 (Gamma-secretase [3]) of 7.37.

With O=S(=O)(NC[C@@H]1CC[C@@]2(S(=O)(=O)c3ccc(C(F)(F)F)cc3)c3c(F)ccc(F)c3OC[C@H]2C1)C1CC1 the pIC50 (Gamma-secretase [1]) was 7.72, the pIC50 (Gamma-secretase [2]) was 8.17 and the pIC50 (Gamma-secretase [3]) was 7.04.

CC[C@@H]1C[C@@H]2[C@@H](CC[C@@]3(S(=O)(=O)c4ccc(C#N)cc4)c4c(F)ccc(F)c4OC[C@@H]23)NS1(=O)=O showed a pIC50 (Gamma-secretase [1]) of 8.70, a pIC50 (Gamma-secretase [2]) of 8.40 and a pIC50 (Gamma-secretase [3]) of 8.33.

CS(=O)(=O)CC[C@@H]1OCC[C@@]2(S(=O)(=O)c3ccc(C#N)cc3)c3c(F)ccc(F)c3OC[C@@H]12 was tested, and the pIC50 (Gamma-secretase [1]) was 8.05, the pIC50 (Gamma-secretase [2]) was 7.60 and the pIC50 (Gamma-secretase [3]) was 7.18.

CS(=O)(=O)CC[C@@H]1OCC[C@@]2(S(=O)(=O)c3ccc(C(F)(F)F)cc3)c3c(F)ccc(F)c3OC[C@@H]12 gave a pIC50 (Gamma-secretase [1]) of 8.40, a pIC50 (Gamma-secretase [2]) of 7.96 and a pIC50 (Gamma-secretase [3]) of 7.82.
